Measurements reported in patent US20230167073A1 (Teijin Pharma Limited, priority 2020, published 2023).

biological target: T1, Human TRPC6 (Homo sapiens, UniProt Q9Y210); assay: Evaluation of TRPC6 channel inhibitory activity (1), FLIPR Calcium 5 Assay Kit, OAG stimulation (Compound Nos. 1-1293); assay type: cell-based; details: Human TRPC6 stably-expressing cells, OAG 30 μM, FLIPR Calcium 5 Assay Kit; read-out: Inhibitory activity (pIC50 class) (converted)
T1 construct: expressed in transfected cells
T1 sequence (Q9Y210 1-931): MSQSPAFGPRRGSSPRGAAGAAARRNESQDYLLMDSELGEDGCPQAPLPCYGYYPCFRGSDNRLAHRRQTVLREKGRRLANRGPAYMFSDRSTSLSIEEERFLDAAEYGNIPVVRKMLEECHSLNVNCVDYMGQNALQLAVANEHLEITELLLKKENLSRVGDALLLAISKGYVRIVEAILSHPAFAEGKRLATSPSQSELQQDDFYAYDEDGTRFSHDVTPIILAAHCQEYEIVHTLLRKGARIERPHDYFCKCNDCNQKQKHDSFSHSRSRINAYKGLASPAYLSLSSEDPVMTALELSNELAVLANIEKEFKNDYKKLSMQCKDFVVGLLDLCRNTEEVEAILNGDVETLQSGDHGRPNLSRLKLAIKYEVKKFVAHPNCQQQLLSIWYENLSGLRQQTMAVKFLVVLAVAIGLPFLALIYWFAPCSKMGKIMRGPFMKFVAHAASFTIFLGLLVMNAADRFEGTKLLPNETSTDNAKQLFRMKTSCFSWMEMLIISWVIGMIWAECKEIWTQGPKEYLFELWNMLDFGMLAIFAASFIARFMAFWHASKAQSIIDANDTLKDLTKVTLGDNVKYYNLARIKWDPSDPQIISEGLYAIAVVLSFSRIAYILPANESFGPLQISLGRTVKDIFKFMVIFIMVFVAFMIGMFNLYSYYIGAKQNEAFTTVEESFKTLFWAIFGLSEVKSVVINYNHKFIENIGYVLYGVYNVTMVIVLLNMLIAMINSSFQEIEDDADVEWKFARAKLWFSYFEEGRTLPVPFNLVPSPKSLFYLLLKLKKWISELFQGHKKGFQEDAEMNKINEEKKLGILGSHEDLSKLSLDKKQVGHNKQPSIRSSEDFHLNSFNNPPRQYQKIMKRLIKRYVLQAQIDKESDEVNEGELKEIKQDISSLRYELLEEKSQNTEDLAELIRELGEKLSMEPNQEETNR
In short: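 Cells stably expressing human TRPC6, plated 24 h before, were loaded 30 min with Calcium 5 dye plus probenecid in HEPES-HBSS. Compound was added 20 min before OAG (30 μM final) and fluorescence tracked on FLIPR. Inhibition normalised to no-compound and no-compound/no-OAG wells; pIC50 from four-parameter fit, reported as +/++/+++ categories.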

SMILES	IC50
CCc1cc(Oc2cc(C#N)ccc2-c2ncc(CN)cn2)n(C)n1 [compound 324, 4-[5-(aminomethyl)pyrimidin-2-yl]-3-(5-ethyl-2-methylpyrazol-3-yl)oxybenzonitrile]	< 10 nM
Cn1nc(C2CC2)cc1Oc1cc(C#N)ccc1-c1nnc(CN)s1 [compound 582, 4-[5-(aminomethyl)-1,3,4-thiadiazol-2-yl]-3-(5-cyclopropyl-2-methylpyrazol-3-yl)oxybenzonitrile]	> 1000 nM
Cc1nn(-c2ccccn2)c(C)c1Oc1cc(C#N)ccc1-c1ncc(CCN)cn1 [compound 941, 4-[5-(2-aminoethyl)pyrimidin-2-yl]-3-(3,5-dimethyl-1-pyridin-2-ylpyrazol-4-yl)oxybenzonitrile]	> 1000 nM
Cn1nc(C2CCCO2)cc1Oc1cc(C#N)ccc1-c1ncc(CCN)cn1 (centres unmarked) [compound 483, 4-[5-(2-aminoethyl)pyrimidin-2-yl]-3-[2-methyl-5-(oxolan-2-yl)pyrazol-3-yl]oxybenzonitrile]	< 10 nM
Cc1nn(CC(F)(F)F)cc1Oc1cc(C#N)ccc1-c1ncc(CCN)cn1 [compound 834, 4-[5-(2-aminoethyl)pyrimidin-2-yl]-3-[3-methyl-1-(2,2,2-trifluoroethyl)pyrazol-4-yl]oxybenzonitrile]	< 10 nM
CC(C)c1cc(Oc2cc(C#N)ccc2-c2ncc(CCN)cn2)n(C)n1 [Compound 261, 4-[5-(2-Aminoethyl)pyrimidin-2-yl]-3-(2-methyl-5-propan-2-ylpyrazol-3-yl)oxybenzonitrile]	< 10 nM
Cc1c(Oc2cc(F)ccc2-c2ncc(CCN)cn2)cnn1CC(C)C [Compound No. 967, 2-[2-[4-fluoro-2-[5-methyl-1-(2-methylpropyl)pyrazol-4-yl]oxyphenyl]pyrimidin-5-yl]ethanamine]	10 to 1000 nM
Cc1nc(Oc2cc(C#N)ccc2-c2ccc(C(O)CN)c(CC#N)c2)cc(N2CCOCC2)n1 (centres unmarked) [Compound 158, 4-[4-(2-amino-1-hydroxyethyl)-3-(cyanomethyl)phenyl]-3-(2-methyl-6-morpholin-4-ylpyrimidin-4-yl)oxybenzonitrile]	10 to 1000 nM
Cc1nc(Oc2cc(C#N)ccc2-c2ncc(CN)cn2)cc(N2CCCC2)n1 [compound 658, 4-[5-(aminomethyl)pyrimidin-2-yl]-3-(2-methyl-6-pyrrolidin-1-ylpyrimidin-4-yl)oxybenzonitrile]	10 to 1000 nM
Cn1nc(C2CC2)cc1Oc1cc(C#N)ccc1-c1cccc2nc(N)nn12 [compound 475, 4-(2-amino-[1,2,4]triazolo[1,5-a]pyridin-5-yl)-3-(5-cyclopropyl-2-methylpyrazol-3-yl)oxybenzonitrile]	> 1000 nM
Cc1nc(Oc2cc(C#N)ccc2-c2ncc(CCN)cn2)cc(-c2nccs2)n1 [compound 598, 4-[5-(2-aminoethyl)pyrimidin-2-yl]-3-[2-methyl-6-(1,3-thiazol-2-yl)pyrimidin-4-yl]oxybenzonitrile]	10 to 1000 nM
CCNc1cc(Oc2cc(C#N)ccc2-c2ncc(CN)cn2)cc(C)n1 [compound 643, 4-[5-(aminomethyl)pyrimidin-2-yl]-3-[2-(ethylamino)-6-methylpyridin-4-yl]oxybenzonitrile]	10 to 1000 nM
Cc1cc(Oc2cc(C#N)ccc2-c2ccc([C@H](O)CN)cn2)cc(C)n1 [compound 437, 4-[5-[(1S)-2-amino-1-hydroxyethyl]pyridin-2-yl]-3-(2,6-dimethylpyridin-4-yl)oxybenzonitrile]	10 to 1000 nM
Cc1nn(-c2ccccn2)cc1Oc1cc(C#N)ccc1-c1ncc(CN)cn1 [compound 833, 4-[5-(aminomethyl)pyrimidin-2-yl]-3-(3-methyl-1-pyridin-2-ylpyrazol-4 yl)oxybenzonitrile]	< 10 nM
CN(C)c1cc(Oc2cc(C#N)ccc2-c2ncc(CCN)cn2)n(C)n1 [compound 629, 4-[5-(2-aminoethyl)pyrimidin-2-yl]-3-[5-(dimethylamino)-2-methylpyrazol-3-yl]oxybenzonitrile]	< 10 nM
CCN(CC)c1cc(Oc2cc(F)ccc2-c2ncc(CCN)cn2)n(C)n1 [compound 972, 5-[2-[5-(2-aminoethyl)pyrimidin-2-yl]-5-fluorophenoxy]-N,N-diethyl-1-methylpyrazole-3-amine]	< 10 nM

SMILES	IC50
Cc1cc(Oc2cc(C#N)ccc2-c2ccc(CC3(N)COC3)cn2)cc(N2CCOCC2)n1 [compound 562, 4-[5-[(3-aminooxetan-3-yl)methyl]pyridin-2-yl]-3-(2-methyl-6-morpholin-4-ylpyridin-4-yl)oxybenzonitrile]	< 10 nM
Cc1nc(OCCC(F)(F)F)cc(Oc2cc(C#N)ccc2-c2ccc(CCN)cc2)n1 [Compound 37, 4-[4-(2-aminoethyl)phenyl]-3-[2-methyl-6-(3,3,3-trifluoropropoxy)pyrimidin-4-yl]oxybenzonitrile]	> 1000 nM
Cc1cc(Oc2cc(C#N)ccc2-c2ccc(CN)cn2)cc(N2CCOCC2)n1 [compound 329, 4-[5-(aminomethyl)pyridin-2-yl]-3-(2-methyl-6-morpholin-4-ylpyridin-4-yl)oxybenzonitrile]	< 10 nM
N#Cc1ccc(-c2ccc(CCN)cc2)c(C(=O)c2cnnc(N3CCOCC3)c2)c1 [compound 1079, 4-[4-(2-aminoethyl)phenyl]-3-(6-morpholin-4-ylpyridazine-4-carbonyl)benzonitrile]	< 10 nM
Cc1cc(Oc2cc(C#N)ccc2-c2ccc([C@H](O)CN)cn2)cc(N2CCOC(C)(C)C2)n1 [compound 531, 4-[5-[(1S)-2-amino-1-hydroxyethyl]pyridin-2-yl]-3-[2-(2,2-dimethylmorpholin-4-yl)-6-methylpyridin-4-yl]oxybenzonitrile]	< 10 nM
Cn1nc(-c2cnccn2)cc1Oc1cc(C#N)ccc1-c1ncc(CN)cn1 [Compound No. 931, 4-[5-(Aminomethyl)pyrimidin-2-yl]-3-(2-methyl-5-pyrazin-2-ylpyrazol-3-yl)oxybenzonitrile]	10 to 1000 nM
Cn1nc(N2CCOCC2)cc1Oc1cc(C#N)ccc1-c1ccc(CCN)cn1 [compound 485, 4-[5-(2-aminoethyl)pyridin-2-yl]-3-(2-methyl-5-morpholin-4-ylpyrazol-3-yl)oxybenzonitrile]	< 10 nM
Cc1nn(C(C)C)cc1Oc1cc(F)ccc1-c1ncc(CCN)cn1 [compound 983, 2-[2-[4-fluoro-2-(3-methyl-1-propan-2-ylpyrazol-4-yl)oxyphenyl]pyrimidin-5-yl]ethanamine]	< 10 nM
Cc1nn(CC(C)C)cc1Oc1cc(C#N)ccc1-c1ncc(CN)cn1 [compound 802, 4-[5-(aminomethyl)pyrimidin-2-yl]-3-[3-methyl-1-(2-methylpropyl)pyrazol-4-yl]oxybenzonitrile]	< 10 nM
Cn1nc(C2CC2)cc1Oc1cc(C#N)ccc1-c1ccc([C@@H](O)CN)cn1 [compound 374, 4-[5-[(1R)-2-amino-1-hydroxyethyl]pyridin-2-yl]-3-(5-cyclopropyl-2-methylpyrazol-3-yl)oxybenzonitrile]	< 10 nM
CCN(CC)C(=O)C(N)c1ccc(-c2ccc(C#N)cc2Oc2cc(C3CC3)nn2C)nc1 (centres unmarked) [compound 488, 2-amino-2-[6-[4-cyano-2-(5-cyclopropyl-2-methylpyrazol-3-yl)oxyphenyl]pyridin-3-yl]-N,N-diethylacetamide]	> 1000 nM
CC(C)CNC(=O)c1cn(Cc2cc(C#N)ccc2-c2ccc(CCN)cc2)cn1 [compound 1114, 1-[[2-[4-(2-aminoethyl)phenyl]-5-cyanophenyl]methyl]-N-(2-methylpropyl)imidazole-4-carboxamide]	> 1000 nM
N#Cc1ccc(-c2ncc(CCN)cn2)c(Oc2cncc(N3CCOCC3)c2)c1 [compound 917, 4-[5-(2-aminoethyl)pyrimidin-2-yl]-3-(5-morpholin-4-ylpyridin-3-yl)oxybenzonitrile]	10 to 1000 nM
Cc1nn(C(C)C)c(C)c1Oc1cc(C#N)ccc1-c1ncc(CCN)cn1 [compound 942, 4-[5-(2-aminoethyl)pyrimidin-2-yl]-3-(3,5-dimethyl-1-propan-2-ylpyrazol-4-yl)oxybenzonitrile]	> 1000 nM
Cc1nc(CN(C)C)cn1Cc1cc(C#N)ccc1-c1ncc(CCN)cn1 [compound 1178, 4-[5-(2-aminoethyl)pyrimidin-2-yl]-3-[[4-[(dimethylamino)methyl]-2-methylimidazol-1-yl]methyl]benzonitrile]	> 1000 nM
Cc1nc(Oc2cc(C#N)ccc2-c2ncc(CCN)cn2)cc(-c2ccccn2)n1 [compound 599, 4-[5-(2-aminoethyl)pyrimidin-2-yl]-3-(2-methyl-6-pyridin-2-ylpyrimidin-4-yl)oxybenzonitrile]	< 10 nM
